Assay results from patent US10233221B2, “Peptide having eight amino acid sequences derived from cage and retaining anticancer activity and activity to promote anticancer drug sensitivity of anticancer drug-resistant cancer cells” (L-Base Co., Ltd., priority 2014, dated 2019).
Where no end group is shown, it is not given here. [ ]: non-standard residue; d: D form. The star is where a group is joined. FITC = O=C1OC2(c3ccc(O)cc3Oc3cc(O)ccc32)c2ccc(NC(=S)*)cc21

Key:
[1] = system: Malme3M^R tumor metastasis; test: Lung metastasis of anticancer drug-resistant cell line in nude mouse; assay type: in vivo; settings: 10 μg/mouse tail vein, 6 times every 3 days from day 4
Procedure: In order to examine the effect of AQTGTGKT (SEQ ID NO: 1 synthesized from L-amino acid) peptide on tumor metastatic ability of an anticancer drug-resistant cell line, long metastasis was carried out using the anticancer drug-resistant cell line and an immunodeficient mouse by a known method.
Celastrol-resistant melanoma cell line (Malme3M^R) having high expression of CAGE was injected into the tail vein of a nude mouse at 1×10^6 cells, and then the metastasis of a tumor into the lung was induced for 2-3 weeks. From day 4 after tumor cell injection, AQTGTGKT (SEQ ID NO: 1 synthesized from L-amino acid) peptide (10 μg/mouse) was injected into the tail vein in a total of 6 times every 3 days, and the lung tissue was excised and the number of tumor nodules was measured by a known method.

[2] = biological target: T1, CAGE and GSK3β proteins in SNU387^R (Homo sapiens, UniProt Q86TM3); test: Immunoprecipitation of CAGE and GSK3β; assay type: cell-based
T1 construct: Celastrol-resistant liver cancer cell line (SNU387^R) and melanoma cell line (Malme3M^R) having high expression of CAGE; endogenous in cells; host or cells: SNU387^R (Celastrol-resistant liver cancer cell line)
T1 sequence (Q86TM3 whole entry): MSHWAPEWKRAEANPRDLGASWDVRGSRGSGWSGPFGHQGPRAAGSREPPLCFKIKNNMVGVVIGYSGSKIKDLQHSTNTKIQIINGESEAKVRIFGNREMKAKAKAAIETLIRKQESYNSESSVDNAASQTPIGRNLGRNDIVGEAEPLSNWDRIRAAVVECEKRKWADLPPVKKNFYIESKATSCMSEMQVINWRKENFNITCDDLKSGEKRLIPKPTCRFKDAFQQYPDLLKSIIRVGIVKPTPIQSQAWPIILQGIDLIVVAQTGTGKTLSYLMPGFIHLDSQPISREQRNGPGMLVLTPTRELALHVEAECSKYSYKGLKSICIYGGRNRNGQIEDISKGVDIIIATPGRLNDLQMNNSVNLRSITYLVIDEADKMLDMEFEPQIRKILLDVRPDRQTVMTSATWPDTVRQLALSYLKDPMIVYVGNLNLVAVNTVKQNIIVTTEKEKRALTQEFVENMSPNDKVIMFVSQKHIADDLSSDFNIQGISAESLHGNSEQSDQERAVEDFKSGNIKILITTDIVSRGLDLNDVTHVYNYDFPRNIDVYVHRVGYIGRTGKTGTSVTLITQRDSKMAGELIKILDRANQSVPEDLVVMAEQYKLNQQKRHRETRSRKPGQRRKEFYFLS
Procedure: (§1) In order to examine the intercellular migration and action mechanisms of AQTGTGKT (SEQ ID NO: 1 synthesized from L-amino acid) and D-AQTGTGKT (SEQ ID NO: 1 synthesized from D-amino acid) peptides, each of the peptides was prepared in a form of being conjugated to fluorescein isothiocyanate (FITC), and used to perform transfection, immunofluorescence, immunoprecipitation, and western blotting by known methods.
(§2) In addition, the cell lines were transfected with AQTGTGKT (SEQ ID NO: 1 synthesized from L-amino acid) or D-AQTGTGKT (SEQ ID NO: 1 synthesized from D-amino acid) peptide, and then subjected to immunoprecipitation and western blotting.

[3] = biological target: T2, CAGE and GSK3β proteins in Malme3M^R (Homo sapiens, UniProt Q86TM3); test: Immunoprecipitation of CAGE and GSK3β; assay type: cell-based
T2 construct: Celastrol-resistant liver cancer cell line (SNU387^R) and melanoma cell line (Malme3M^R) having high expression of CAGE; endogenous in cells; host or cells: Malme3M^R (Celastrol-resistant melanoma cell line)
T2 sequence (Q86TM3 whole entry): as above
Procedure: as §1, §2

[4] = system: GSK3β ser9 and Cyclin D1 in Malme3M^R; test: Western blotting of GSK3β ser9 and Cyclin D1; assay type: cell-based
Procedure: as §1
(§3) The same cell lines were transfected with AQTGTGKT (SEQ ID NO: 1 synthesized from L-amino acid) or FITC-AQTGTGKT (FITC-SEQ ID NO: 1) peptide, and then subjected to immunoprecipitation and western blotting.
as §2

[5] = system: GSK3β ser9 and Cyclin D1 in SNU387^R; test: Western blotting of GSK3β ser9 and Cyclin D1; assay type: cell-based
Procedure: as §1, §3, §2

[6] = system: CAGE-GSK3β, GSK3β ser9, Cyclin D1 in lung tissues; test: Immunoprecipitation and western blotting of lung tissues; assay type: in vivo, nude mouse
From the text: After the protein was collected from the lung tissues by a conventional method, the protein expression and activation patterns were examined through immunoprecipitation and western blotting.

Malme3M^R tumor = test: Tumorigenicity of anticancer drug-resistant cell line in nude mouse; assay type: in vivo; settings: 10 μg/mouse tail vein, 6 times every 3 days
Procedure: In order to examine that the AQTGTGKT (SEQ ID NO: 1 synthesized from L-amino acid) is a tumor-specific peptide, experiments were carried out by a known method using an anticancer drug-resistant cell line and an immune-deficient mouse.
Celastrol-resistant melanoma cell line (Malme3M^R) having high expression of CAGE was injected into the side of a nude mouse at 1×10^6 cells. When a tumor was grown to have a measurable tumor size, the tumor size was measured using a digital gauge at regular intervals, and the tumor size was calculated using a known formula (widest length×shortest length×0.5).
After the tumor was induced by the above method, AQTGTGKT (SEQ ID NO: 1 synthesized from L-amino acid) peptide (10 μg/mouse) was injected into the tail vein alone or in combination with Celastrol or Taxol anticancer drug in a total of 6 times every 3 days for 2 weeks, while the size of the tumor was measured.

[7] = system: angiogenesis inducing ability of Malme3M^R; test: Angiogenesis, intravital microscopy; assay type: in vivo; settings: conditioned media of treated Malme3M^R mixed with Matrigel, injected into BALB/C mice
Procedure: (§4) In order to examine the effects of AQTGTGKT (SEQ ID NO: 1 synthesized from L-amino acid) and D-AQTGTGKT (SEQ ID NO: 1 synthesized from D-amino acid) peptides on the migration, invasiveness, and angiogenesis inducing ability of anticancer drug-resistant cell line, the invasion assay, wound-healing migration assay, and intravital microscopy were carried out by conventional methods using Celastrol-resistant melanoma cell line (Malme3M^R).
After Celastrol-resistant melanoma cell line (Malme3M^R) was treated with AQTGTGKT (SEQ ID NO: 1 synthesized from L-amino acid) or D-AQTGTGKT (SEQ ID NO: 1 synthesized from D-amino acid) peptide, the obtained conditioned media were mixed with Matrigel and then injected into BALB/C mice, and then the mice were injected with FITC-dextran to examine the effect on angiogenesis using intravital microscopy.

[8] = system: Celastrol-resistant liver cancer cell line (SNU387^R); test: Western blotting of PARP and FAK cleavage; assay type: cell-based; settings: 1 μM peptide 24 hours, then 1 μM and 10 μM Celastrol and Taxol 1 hour, vs cell lines without peptide
Procedure: (§5) In order to examine the effects of AQTGTGKT (SEQ ID NO: 1 synthesized from L-amino acid) or D-AQTGTGKT (SEQ ID NO: 1 synthesized from D-amino acid) peptides on the anticancer drug resistance of cancer cells, MTT assay and western blotting were conducted by a known method.
(§6) Liver cancer cell line (SNU387^R) and melanoma cell line (Malme3M^R), which show resistance to Celastrol as an anticancer drug, were transfected with 1 μM AQTGTGKT (SEQ ID NO: 1 synthesized from L-amino acid) or D-AQTGTGKT (SEQ ID NO: 1 synthesized from D-amino acid) peptide for 24 hours, respectively, and then treated with 1 μM and 10 μM Celastrol and Taxol for 1 hour.

[9] = system: Celastrol-resistant melanoma cell line (Malme3M^R); test: Western blotting of PARP and FAK cleavage; assay type: cell-based; settings: 1 μM peptide 24 hours, then 1 μM and 10 μM Celastrol and Taxol 1 hour, vs cell lines without peptide
Procedure: as §5, §6

[10] = system: Taxol-resistant melanoma cell line (Malme3M^R-Taxol); test: Wound-healing migration assay; assay type: cell-based; settings: 24-48 hours
Procedure: as §4
(§7) Celastrol-resistant melanoma cell line (Malme3MR) or Taxol-resistant melanoma cell line (Malme3M^R-Taxol) was cultured in 24-well culture dishes, and wounded using a 1 ml tip by a conventional method, and then the migrating cells were counted for 24-48 hours.

[11] = system: Celastrol-resistant melanoma cell line (Malme3MR); test: Wound-healing migration assay; assay type: cell-based; settings: 24-48 hours
Procedure: as §4, §7

[12] = system: CAGE-GSK3β, GSK3β ser9, cyclin D1, MDR1 in tumor tissues; test: Western blotting and immunoprecipitation of tumor tissues; assay type: in vivo, nude mouse
Procedure: After the above experiments, the protein expression and activation were examined. The tumor tissues were disrupted by liquid nitrogen according to a known method, reacted with a dissolution buffer on ice for 30 minutes, and centrifuged at 13,000 rpm for 15 minutes, and then the supernatant solution was collected as a protein sample. Thereafter, this protein sample was subjected to western blotting and immunoprecipitation to examine the protein expression and activation and the interconnection of proteins.

Malme3M^R tumor tissues = test: Tumor-specific migration (in vivo homing); set-up: species or system immunodeficient mice; settings: 12 hours after tail vein injection; in vivo imaging of extracted tissues
Procedure: In order to examine that the AQTGTGKT (SEQ ID NO: 1 synthesized from L-amino acid) peptide is a tumor-specific peptide, experiments were carried out by a known method using FITC-AQTGTGKT (FITC-SEQ ID NO: 1) and anticancer drug-resistant cell lines and immunodeficient mice.
Celastrol-resistant melanoma cell line (Malme3M^R) having high expression of CAGE was injected into immunodeficient mice by a known method to induce tumors, and then 12 hours after FITC-AQTGTGKT (FITC-SEQ ID NO: 1) was injected into the tail vein, normal tissues (brain, heart, spleen, Liver, lung, etc.) and tumor tissues were extracted and examined using a small in vivo imaging system.

SNU387^R = test: Intracellular migration, fluorescent microscope; assay type: cell-based; settings: 24 hours after transfection
Procedure: as §1
(§8) Celastrol-resistant liver cancer cell line (SNU387^R) and melanoma cell line (Malme3M^R) having high expression of CAGE were transfected with FITC-AQTGTGKT (FITC-SEQ ID NO: 1) peptide, and after 24 hours, the cell lines were examined under a fluorescent microscope.

Malme3M^R = test: Intracellular migration, fluorescent microscope; assay type: cell-based; settings: 24 hours after transfection
Procedure: as §1, §8

interconnection of CAGE and GSK3β proteins [2]	interconnection of CAGE and GSK3β proteins [3]	Substance	dephosphorylation of GSK3β ser9 [4]	expression of Cyclin D1 [4]	dephosphorylation of GSK3β ser9 [5]	expression of Cyclin D1 [5]	angiogenesis inducing ability [7]	cleavage of PARP and FAK proteins [8]	cleavage of PARP and FAK proteins [9]	cell migration [10]	cell migration [11]	further results
inhibited	inhibited	AQTGTGKT (listed as Homo sapiens)	inhibited	inhibited	inhibited	inhibited	remarkably reduced	significantly observed	significantly observed	inhibited	inhibited	tumor metastasis (number of lung tumor nodules) [1]: reduced; dephosphorylation of GSK3β ser9 [6]: inhibited; expression of Cyclin D1 [6]: inhibited; interconnection of CAGE and GSK3β proteins [6]: inhibited; tumorigenicity (tumor size) (Malme3M^R tumor; alone): reduced; anticancer drug resistance (tumor size) (Malme3M^R tumor; in combination with Celastrol or Taxol): reduced; GSK3β ser9 dephosphorylation [12]: reductions; cyclin D1 expression [12]: reductions; expression of MDR1 [12]: inhibited; interconnection of CAGE and GSK3β proteins [12]: inhibited
inhibited	inhibited	D-AQTGTGKT ([dA][dQ][dT]G[dT]G[dK][dT]; listed as Homo sapiens)	inhibited	inhibited	inhibited	inhibited	remarkably reduced	significantly observed	significantly observed	inhibited	inhibited	–
–	–	FITC-AQTGTGKT ({FITC}-AQTGTGKT; listed as Homo sapiens) [AQTGTGKT peptide conjugated to fluorescein isothiocyanate (FITC)]	inhibited	inhibited	inhibited	inhibited	–	–	–	–	–	migration to tumor tissues vs normal tissues (Malme3M^R tumor tissues): migrated specifically to tumor tissues; migration of peptide into the cells (SNU387^R): migrated into the cells; migration of peptide into the cells (Malme3M^R): migrated into the cells
